# Source: US11946059B2, “In vivo generation of water-soluble cannabinoids in plant cell suspension cultures” (Trait Biosciences Inc., priority 2017, dated 2024)
# Assay: Cannabinoid stability in solution (time course incubation)
# Assay type: physicochemical
# Settings: room temperature, shielded from light
# Procedure: Rather, levels increased slightly in all treatments. The absence of any residual UGTs were cross-check and confirmed as the samples were purified by SPE, washed and eluted in 30% and 65%-100% ethanol, respectively.
# Materials and Methods Example 19: Cannabinoid Stability in Solution.
# The present inventors generated a stock solution of the CBD/CBDA+glycosides mixture in water which was further diluted 10× in all treatment solutions. A 10 mL starting volume was used for all treatments, and all treatments were prepared in triplicate. […] Each sample was incubated at room temperature. Samples were stored in 15 mL polypropylene centrifuge tubes. All samples were shielded from light—tubes were wrapped in aluminum foil. Each sample was prepared in triplicate in the following buffers: water only; pH=3; pH=4; pH=7; pH=8; water only+10 mM ascorbic acid; pH=3+10 mM ascorbic acid; pH=4+10 mM ascorbic acid; pH=7+10 mM ascorbic acid; and pH=8+10 mM ascorbic acid.
# [1] = Water + AA (10 mM ascorbic acid)
# [2] = pH = 3 + AA (10 mM ascorbic acid)
# [3] = pH = 4 + AA (10 mM ascorbic acid)
# [4] = pH = 7 + AA (10 mM ascorbic acid)
# [5] = pH = 8 + AA (10 mM ascorbic acid)
structure (smiles),measurement,setting,value
"C=C(C)[C@@H]1CCC(C)=C[C@H]1c1c(O)cc(CCCCC)cc1O [CBD, cannabidiol, reference compound]",Day 0 concentration in solution,[1],561.85 ± 86.83 µg/mL
same,Day 0 concentration in solution,Water,399.81 ± 111.06 µg/mL
same,Day 0 concentration in solution,[2],565.75 ± 40.96 µg/mL
same,Day 0 concentration in solution,pH = 3,568.71 ± 115.90 µg/mL
same,Day 0 concentration in solution,[3],524.40 ± 34.95 µg/mL
same,Day 0 concentration in solution,pH = 4,505.97 ± 5.10 µg/mL
same,Day 0 concentration in solution,[4],500.03 ± 21.45 µg/mL
same,Day 0 concentration in solution,pH = 7,528.04 ± 91.17 µg/mL
same,Day 0 concentration in solution,[5],1136.36 ± 996.36 µg/mL
same,Day 0 concentration in solution,pH = 8,513.35 ± 39.23 µg/mL
same,Day 1 concentration in solution,[1],428.63 ± 198.77 µg/mL
same,Day 1 concentration in solution,Water,629.00 ± 383.79 µg/mL
same,Day 1 concentration in solution,[2],650.49 ± 12.10 µg/mL
same,Day 1 concentration in solution,pH = 3,713.93 ± 41.47 µg/mL
same,Day 1 concentration in solution,[3],406.17 ± 210.69 µg/mL
same,Day 1 concentration in solution,pH = 4,380.77 ± 233.10 µg/mL
same,Day 1 concentration in solution,[4],505.88 ± 276.58 µg/mL
same,Day 1 concentration in solution,pH = 7,880.54 ± 5.87 µg/mL
same,Day 1 concentration in solution,[5],291.15 ± 78.65 µg/mL
same,Day 1 concentration in solution,pH = 8,747.61 ± 101.87 µg/mL
same,Day 4 concentration in solution,[1],182.66 ± 25.03 µg/mL
same,Day 4 concentration in solution,Water,432.54 ± 251.39 µg/mL
same,Day 4 concentration in solution,[2],232.39 ± 113.88 µg/mL
same,Day 4 concentration in solution,pH = 3,191.94 ± 55.68 µg/mL
same,Day 4 concentration in solution,[3],305.20 ± 97.35 µg/mL
same,Day 4 concentration in solution,pH = 4,278.33 ± 85.33 µg/mL
same,Day 4 concentration in solution,[4],398.16 ± 391.86 µg/mL
same,Day 4 concentration in solution,pH = 7,539.55 ± 260.69 µg/mL
same,Day 4 concentration in solution,[5],173.43 ± 17.53 µg/mL
same,Day 4 concentration in solution,pH = 8,560.90 ± 69.27 µg/mL
same,Day 5 concentration in solution,[1],448.64 ± 33.51 µg/mL
same,Day 5 concentration in solution,Water,466.09 ± 130.53 µg/mL
same,Day 5 concentration in solution,[2],320.48 ± 92.87 µg/mL
same,Day 5 concentration in solution,pH = 3,330.79 ± 138.28 µg/mL
same,Day 5 concentration in solution,[3],366.65 ± 92.35 µg/mL
same,Day 5 concentration in solution,pH = 4,510.50 ± 76.06 µg/mL
same,Day 5 concentration in solution,[4],353.25 ± 135.11 µg/mL
same,Day 5 concentration in solution,pH = 7,593.92 ± 6.30 µg/mL
same,Day 5 concentration in solution,[5],287.24 ± 39.56 µg/mL
same,Day 5 concentration in solution,pH = 8,498.21 ± 92.88 µg/mL
same,Day 6 concentration in solution,[1],957.17 ± 315.70 µg/mL
same,Day 6 concentration in solution,Water,179.13 ± 17.88 µg/mL
same,Day 6 concentration in solution,[2],801.14 ± 230.88 µg/mL
same,Day 6 concentration in solution,pH = 3,607.98 ± 416.07 µg/mL
same,Day 6 concentration in solution,[3],777.26 ± 56.02 µg/mL
same,Day 6 concentration in solution,pH = 4,897.52 ± 65.92 µg/mL
same,Day 6 concentration in solution,[4],828.02 ± 269.38 µg/mL
same,Day 6 concentration in solution,pH = 7,1115.01 ± 169.64 µg/mL
same,Day 6 concentration in solution,[5],847.26 ± 88.56 µg/mL
same,Day 6 concentration in solution,pH = 8,911.61 ± 84.17 µg/mL
same,Day 7 concentration in solution,[1],592.44 ± 87.97 µg/mL
same,Day 7 concentration in solution,Water,680.13 ± 229.24 µg/mL
same,Day 7 concentration in solution,[2],464.35 ± 105.43 µg/mL
same,Day 7 concentration in solution,pH = 3,563.80 ± 65.50 µg/mL
same,Day 7 concentration in solution,[3],557.34 ± 60.39 µg/mL
same,Day 7 concentration in solution,pH = 4,641.86 ± 33.49 µg/mL
same,Day 7 concentration in solution,[4],549.93 ± 39.69 µg/mL
same,Day 7 concentration in solution,pH = 7,544.28 ± 57.97 µg/mL
same,Day 7 concentration in solution,[5],630.99 ± 2.44 µg/mL
same,Day 7 concentration in solution,pH = 8,580.54 ± 94.41 µg/mL
C=C(C)C1CCC(C)=CC1c1c(O)cc(CCCCC)cc1OC1OC(CO)C(O)C(O)C1O (centres unmarked) [1X CBD Gly],Day 1 concentration in solution,[1],7.99 ± 4.17 µg/mL
same,Day 1 concentration in solution,Water,1.20 ± 21.68 µg/mL
same,Day 1 concentration in solution,[2],9.78 ± 5.27 µg/mL
same,Day 1 concentration in solution,pH = 3,8.83 ± 1.80 µg/mL
same,Day 1 concentration in solution,[3],5.82 ± 3.11 µg/mL
same,Day 1 concentration in solution,pH = 4,below LOQ
same,Day 1 concentration in solution,[4],5.73 ± 4.70 µg/mL
same,Day 1 concentration in solution,pH = 7,15.45 ± 0.07 µg/mL
same,Day 1 concentration in solution,[5],1.04 ± 4.15 µg/mL
same,Day 1 concentration in solution,pH = 8,12.86 ± 4.15 µg/mL
same,Day 4 concentration in solution,[1],17.55 ± 5.99 µg/mL
same,Day 4 concentration in solution,Water,15.11 ± 10.77 µg/mL
same,Day 4 concentration in solution,[2],17.99 ± 4.60 µg/mL
same,Day 4 concentration in solution,pH = 3,18.94 ± 4.88 µg/mL
same,Day 4 concentration in solution,[3],17.02 ± 5.68 µg/mL
same,Day 4 concentration in solution,pH = 4,29.03 ± 8.17 µg/mL
same,Day 4 concentration in solution,[4],19.96 ± 9.83 µg/mL
same,Day 4 concentration in solution,pH = 7,19.64 ± 3.44 µg/mL
same,Day 4 concentration in solution,[5],15.86 ± 2.63 µg/mL
same,Day 4 concentration in solution,pH = 8,26.99 ± 15.29 µg/mL
same,Day 5 concentration in solution,[1],19.70 ± 0.80 µg/mL
same,Day 5 concentration in solution,Water,14.60 ± 1.31 µg/mL
same,Day 5 concentration in solution,[2],19.29 ± 3.26 µg/mL
same,Day 5 concentration in solution,pH = 3,18.00 ± 0.59 µg/mL
same,Day 5 concentration in solution,[3],19.34 ± 1.90 µg/mL
same,Day 5 concentration in solution,pH = 4,18.26 ± 0.52 µg/mL
same,Day 5 concentration in solution,[4],19.05 ± 3.91 µg/mL
same,Day 5 concentration in solution,pH = 7,17.50 ± 1.63 µg/mL
same,Day 5 concentration in solution,[5],20.14 ± 1.73 µg/mL
same,Day 5 concentration in solution,pH = 8,19.73 ± 0.55 µg/mL
same,Day 6 concentration in solution,[1],34.98 ± 9.28 µg/mL
same,Day 6 concentration in solution,Water,8.56 ± 7.04 µg/mL
same,Day 6 concentration in solution,[2],27.67 ± 9.51 µg/mL
same,Day 6 concentration in solution,pH = 3,21.59 ± 7.97 µg/mL
same,Day 6 concentration in solution,[3],31.67 ± 4.29 µg/mL
same,Day 6 concentration in solution,pH = 4,32.87 ± 8.08 µg/mL
same,Day 6 concentration in solution,[4],30.43 ± 4.82 µg/mL
same,Day 6 concentration in solution,pH = 7,46.80 ± 10.12 µg/mL
same,Day 6 concentration in solution,[5],32.97 ± 1.31 µg/mL
same,Day 6 concentration in solution,pH = 8,44.10 ± 3.45 µg/mL
same,Day 7 concentration in solution,[1],24.99 ± 7.29 µg/mL
same,Day 7 concentration in solution,Water,23.89 ± 5.27 µg/mL
same,Day 7 concentration in solution,[2],19.38 ± 0.46 µg/mL
same,Day 7 concentration in solution,pH = 3,27.06 ± 4.05 µg/mL
same,Day 7 concentration in solution,[3],23.30 ± 3.95 µg/mL
same,Day 7 concentration in solution,pH = 4,26.96 ± 0.46 µg/mL
same,Day 7 concentration in solution,[4],39.57 ± 4.63 µg/mL
same,Day 7 concentration in solution,pH = 7,22.14 ± 6.83 µg/mL
same,Day 7 concentration in solution,[5],37.93 ± 2.89 µg/mL
same,Day 7 concentration in solution,pH = 8,32.42 ± 8.76 µg/mL
